Patent US20200352905A1, “6-(2,4-DICHLOROPHENYL)-5-[4-[(3S)-1-(3-FLUOROPROPYL)PYRROLIDIN-3-YL]OXYPHENYL]-8,9-DIHYDRO-7H-BENZO[7]ANNULENE-2-CARBOXYLIC ACID FOR USE IN METASTATIC OR ADVANCED BREAST CANCER PATIENTS” (SANOFI, priority 2019, published 2020)
Entries after “also recorded” stand apart in the source; their conditions may differ.

Legend:
[1] = Phase 1/2 study TED14856 Part A (dose escalation): safety, DLT, TEAEs; format: in vivo
Method: This is an open-label, non-comparative, dose escalation and dose expansion, safety, efficacy, PK and PD evaluation study of compound (1) administered orally as monotherapy.
Dose escalation is initiated with a once daily (QD) schedule with a starting dose of 20 mg/day. Dose escalation is expected to proceed according to the Table A below. Intra-patient dose escalation is not permitted.
Part A of this study is designed using the 3+3 concept: 3 to 6 patients are treated at each dose level, depending on DLTs observed in the first 3 patients. If one of the first 3 evaluable patients experiences DLT during Cycle 1, this cohort is expanded with a total of up to 6 patients. If less than 1 out of 3 patients or less than 2 out of 6 patients experience DLTs at a given dose level, the dose escalation is proceeded to the next dose level.
(§1) For the QD regimen, during Cycle 1, one dose is taken on Day 1 in fasting condition, no dose on Day 2 and repeated administration starts from Day 3. On Day 3 only, the dose is taken in fed condition for a food effect evaluation, and then all subsequent administrations are taken in fasted condition, and at approximately the same time each day (±3 hours). From the conclusions drawn with the initial QD dose regimen, patients treated with other dose regimens are allowed to take Compound (1) in fasted or fed condition. For the BID regimen, the 600 mg dose is split in two drug administrations: 300 mg taken two times a day 12 hours apart (i.e. 2×300 mg)±1 hour with or without food (with one dose only taken in the morning on Day 1, no dose on Day 2 and then repeated BID dosing from Day 3).
Incidence of study treatment-related DLTs at Cycle 1 (Day 1 to Day 28). DLT is defined as the occurrence of any of the following treatment-emergent adverse events (TEAEs) related to the study therapy using NCI-CTCAE (v4.03): • Any Grade ≥3 non-hematological toxicity, except: • Grade 3 nausea and vomiting resolving to Grade ≤1 within 48 hours, with or without adequate antiemetic treatment, • Grade 3 diarrhea, if controlled with adequate antidiarrheal therapy and lasting less than 48 hours. • Any Grade ≥3 hematological toxicity, except • Grade 3 anemia, • Grade 4 neutropenia <7 days, • Grade 3 neutropenia without fever or infection, • Grade 3 thrombocytopenia without bleeding. • Any elevated total serum bilirubin >2×ULN. • Any toxicity related to study treatment, resulting in omission of the study treatment for 7 days or more during Cycle 1. • A TEAE that in the opinion of the study committee is possibly or probably study treatment-related and is of potential clinical significance such that further dose escalation would expose patients to unacceptable risk.
These TEAEs are considered as study treatment-related in the absence of evidence to the contrary and if not related to disease progression. If multiple toxicities are seen, the presence of DLT will be based on the most severe experienced toxicity. At the end of Cycle 1, each patient must be assessed by the Investigator as to whether or not the patient experienced DLT, and this information must be recorded within the appropriate screen of the electronic case report forms (eCRFs) and an electronic DLT notification (either DLT or not) is sent to the Sponsor. Patients can continue the treatment after resolution (Grade 1) of the adverse event (AE) or to their baseline status. Patients need to complete at least 75% of the intended doses at Cycle 1 to be evaluable and shall have ^18FES-PET scans evaluable at baseline and between Day 11 and Day 15 to be evaluable for DLTs in Part A.
Safety population includes all patients exposed to at least one dose of the study treatment.
Study treatment-related DLTs occurring during Cycle 1 are assessed and analyzed on the DLT-evaluable population. In addition, AEs meeting DLT criteria occurring in any additional cycle are assessed and analyzed on the safety population. […]

[2] = Pilot food effect on PK (moderate fat breakfast, Day 3 Cycle 1, Part A); format: in vivo, human
Method: Pilot food effect: A pilot food effect is assessed by PK sampling after drug administration with a moderate fat breakfast on Day 3 of Cycle 1 in all patients treated in Part A. All other dosing in Part A is taken in fasted condition. If results from the QD dosing regimen allow conclusions to be drawn, this will not be implemented for other dosing regimens (eg, BID) that are explored.
as §1
The food effect is assessed by comparing AUC0-24 and Cmax between Day 1/Cycle 1 and Day 3/Cycle 1 in Part A.

## O=C(O)c1ccc2c(c1)CCCC(c1ccc(Cl)cc1Cl)=C2c1ccc(O[C@H]2CCN(CCCF)C2)cc1 [compound (1), 6-(2,4-dichlorophenyl)-5-[4-[(3S)-1-(3-fluoropropyl)pyrrolidin-3-yl]oxyphenyl]-8,9-dihydro-7H-benzo[7]annulene-2-carboxylic acid]
[1]; Part A, N=16
  Patients with related TEAE: Urinary tract infection: 0 n
[1]; Part A, up to 600 mg QD
  maximum tolerated dose (MTD): not reached; also recorded: no MTD observed
[1]; Part A, 3 disease progression, 1 unknown reason
  patients who died during study period: 4 patients
[1]; Part A, all considered not associated with compound (1)
  patients with serious TEAEs: 3 patients
[1]; female, human, in vivo
  Patients with Gr3 TEAE: Abdominal pain upper: 0 n
  Patients with Gr3 TEAE: Arthralgia: 0 n
  Patients with Gr3 TEAE: Asthenia: 0 n
  Patients with Gr3 TEAE: Constipation: 0 n
  Patients with Gr3 TEAE: Cough: 0 n
  Patients with Gr3 TEAE: Decreased appetite: 0 n
  Patients with Gr3 TEAE: Diarrhea: 0 n
  Patients with Gr3 TEAE: Dry skin: 0 n
  Patients with Gr3 TEAE: Dysgeusia: 0 n
  Patients with Gr3 TEAE: Hot flush: 0 n
  Patients with Gr3 TEAE: Hypertension: 0 n
  Patients with Gr3 TEAE: Hypoaesthesia: 0 n
  Patients with Gr3 TEAE: Musculoskeletal chest pain: 0 n
  Patients with Gr3 TEAE: Myalgia: 0 n
  Patients with Gr3 TEAE: Nasopharyngitis: 0 n
  Patients with Gr3 TEAE: Nausea: 0 n
  Patients with Gr3 TEAE: Night sweat: 0 n
  Patients with Gr3 TEAE: Pain: 0 n
  Patients with Gr3 TEAE: Photophobia: 0 n
  Patients with Gr3 TEAE: Rash: 0 n
  Patients with Gr3 TEAE: Upper respiratory tract infection: 0 n
  Patients with Gr3 TEAE: Vomiting: 0 n
  Patients with related Gr3 TEAE: ALL: 0 n
  Patients with related Gr3 TEAE: Abdominal pain upper: 0 n
  Patients with related Gr3 TEAE: Arthralgia: 0 n
  Patients with related Gr3 TEAE: Asthenia: 0 n
  Patients with related Gr3 TEAE: Back pain: 0 n
  Patients with related Gr3 TEAE: Constipation: 0 n
  Patients with related Gr3 TEAE: Cough: 0 n
  Patients with related Gr3 TEAE: Decreased appetite: 0 n
  Patients with related Gr3 TEAE: Diarrhea: 0 n
  Patients with related Gr3 TEAE: Dry skin: 0 n
  Patients with related Gr3 TEAE: Dysgeusia: 0 n
  Patients with related Gr3 TEAE: Dyspnoea: 0 n
  Patients with related Gr3 TEAE: Fatigue: 0 n
  Patients with related Gr3 TEAE: Hot flush: 0 n
  Patients with related Gr3 TEAE: Hypertension: 0 n
  Patients with related Gr3 TEAE: Hypoaesthesia: 0 n
  Patients with related Gr3 TEAE: Musculoskeletal chest pain: 0 n
  Patients with related Gr3 TEAE: Myalgia: 0 n
  Patients with related Gr3 TEAE: Nasopharyngitis: 0 n
  Patients with related Gr3 TEAE: Nausea: 0 n
  Patients with related Gr3 TEAE: Night sweat: 0 n
  Patients with related Gr3 TEAE: Pain: 0 n
  Patients with related Gr3 TEAE: Photophobia: 0 n
  Patients with related Gr3 TEAE: Rash: 0 n
  Patients with related Gr3 TEAE: Upper respiratory tract infection: 0 n
  Patients with related Gr3 TEAE: Urinary tract infection: 0 n
  Patients with related Gr3 TEAE: Vomiting: 0 n
  Patients with related TEAE: Cough: 0 n
  Patients with related TEAE: Dysgeusia: 0 n
  Patients with related TEAE: Hypoaesthesia: 0 n
  Patients with related TEAE: Musculoskeletal chest pain: 0 n
  Patients with related TEAE: Nasopharyngitis: 0 n
  Patients with related TEAE: Rash: 0 n
  Patients with related TEAE: Upper respiratory tract infection: 0 n
  serious TEAEs reported: 4
[2]; female, human, plasma, oral, overall across doses, read-out: delay of median tmax with food
  Tmax: ~1 h
[2]; overall across doses
  increase of exposure with food: about 45%
[2]; regardless of dose level
  food effect on exposure: did not result in a major effect on exposure; also recorded: minimal
